Results reported in ChEMBL document CHEMBL1667764, “Characterization of the baicalein-bovine serum albumin complex without or with Cu2+ or Fe3+ by spectroscopic approaches” (Eur J Med Chem, 2011).

Tests used:
Conditions in all cases: cattle
Albumin [1] = biological target: T1, Albumin (Bos taurus, UniProt P02769); test: Binding affinity to bovine serum albumin using 3x10'-6 Lmol'-1 at pH 7.4 at 310K by Stern-Volmer plot
Albumin [2] = biological target: T1, Albumin; test: Binding affinity to bovine serum albumin using 4.5x10'-6 Lmol'-1 at pH 7.4 at 310K by Stern-Volmer plot
Albumin [3] = biological target: T1, Albumin; test: Binding affinity to bovine serum albumin at pH 7.4 at 310K in presence of Fe3+ by fluorescence quenching
Albumin [4] = biological target: T1, Albumin; test: Binding affinity to bovine serum albumin at pH 7.4 at 310K by fluorescence quenching logarithmic plot
Albumin [5] = biological target: T1, Albumin; test: Binding affinity to bovine serum albumin using 6x10'-6 Lmol'-1 at pH 7.4 at 310K by Stern-Volmer plot
Albumin [6] = biological target: T1, Albumin; test: Binding affinity to bovine serum albumin at pH 7.4 at 310K in presence of Fe3+ by fluorescence quenching logarithmic plot
Albumin [7] = biological target: T1, Albumin; test: Binding affinity to bovine serum albumin at pH 7.4 at 310K in presence of Cu2+ by fluorescence quenching logarithmic plot
Albumin [8] = biological target: T1, Albumin; test: Binding affinity to bovine serum albumin at pH 7.4 at 310K by fluorescence quenching
Albumin [9] = biological target: T1, Albumin; test: Binding affinity to bovine serum albumin at pH 7.4 at 310K in presence of Cu2+ by fluorescence quenching

T1 sequence (P02769 whole entry): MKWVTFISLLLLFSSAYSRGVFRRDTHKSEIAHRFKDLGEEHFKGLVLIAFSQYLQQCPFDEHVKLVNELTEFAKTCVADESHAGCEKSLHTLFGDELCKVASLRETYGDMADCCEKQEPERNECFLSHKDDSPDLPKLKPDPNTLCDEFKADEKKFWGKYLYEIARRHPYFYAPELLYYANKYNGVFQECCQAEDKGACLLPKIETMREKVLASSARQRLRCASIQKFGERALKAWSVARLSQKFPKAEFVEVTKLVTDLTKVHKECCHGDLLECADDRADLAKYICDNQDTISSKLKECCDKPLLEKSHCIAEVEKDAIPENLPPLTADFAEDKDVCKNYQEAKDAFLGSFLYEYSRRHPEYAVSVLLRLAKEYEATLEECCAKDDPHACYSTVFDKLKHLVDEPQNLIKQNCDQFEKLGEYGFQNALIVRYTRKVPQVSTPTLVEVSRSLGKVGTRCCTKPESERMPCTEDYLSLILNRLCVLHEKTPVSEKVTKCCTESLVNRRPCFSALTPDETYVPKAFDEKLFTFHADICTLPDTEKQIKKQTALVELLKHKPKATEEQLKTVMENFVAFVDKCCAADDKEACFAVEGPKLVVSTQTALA

KSV (Albumin [1]): 2.11 ×10⁵ L/mol
Kq (Albumin [1]): 4.22 ×10¹³ L/mol/s
KSV (Albumin [2]): 1.96 ×10⁵ L/mol
Kq (Albumin [2]): 3.92 ×10¹³ L/mol/s
KSV (Albumin [3]): 1.6 ×10⁵ L/mol
Kq (Albumin [3]): 3.2 ×10¹³ L/mol/s
K (Albumin [4]): 2.7 ×10⁵ L/mol
KSV (Albumin [5]): 1.51 ×10⁵ L/mol
Kq (Albumin [5]): 3.02 ×10¹³ L/mol/s
K (Albumin [6]): 4.85 ×10⁴ L/mol
K (Albumin [7]): 1.88 ×10⁵ L/mol
KSV (Albumin [8]): 1.96 ×10⁵ L/mol
Kq (Albumin [8]): 3.92 ×10¹³ L/mol/s
KSV (Albumin [9]): 1.76 ×10⁵ L/mol
Kq (Albumin [9]): 3.52 ×10¹³ L/mol/s
Compound: O=c1cc(-c2ccccc2)oc2cc(O)c(O)c(O)c12 [BAICALEIN]
